Reference: patent US7102009B2, “Substituted amine derivatives and methods of use” (Amgen Inc., priority 2001, dated 2006)

Test system: Human Umbilical Vein Endothelial cells (VEGF-stimulated HUVEC proliferation)
Test: HUVEC Proliferation Assay (VEGF-stimulated)
Format: cell-based
Settings: VEGF 50 ng/mL, 72 h incubation, CyQuant readout, read-out: inhibited VEGF-stimulated HUVEC proliferation at a level below (IC50)
Method: Human Umbilical Vein Endothelial cells are purchased from Clonetics, Inc., as cryopreserved cells harvested from a pool of donors. These cells, at passage 1, are thawed and expanded in EBM-2 complete medium, until passage 2 or 3. The cells are trypsinized, washed in DMEM+10% FBS+antibiotics, and spun at 1000 rpm for 10 min. Prior to centrifugation of the cells, a small amount is collected for a cell count. After centrifugation, the medium is discarded, and the cells are resuspended in the appropriate volume of DMEM+10% FBS+antibiotics to achieve a concentration of 3×10^5 cells/mL. Another cell count is performed to confirm the cell concentration. The cells are diluted to 3×10^4 cells/mL in DMEM+10% FBS+antibiotics, and 100 μL of cells are added to a 96-well plate. The cells are incubated at 37° C. for 22 h.
Prior to the completion of the incubation period, compound dilutions are prepared. Five-point, five-fold serial dilutions are prepared in DMSO, at concentrations 400-fold greater than the final concentrations desired. 2.5 μL of each compound dilution are diluted further in a total of 1 mL DMEM+10% FBS+antibiotics (400× dilution). Medium containing 0.25% DMSO is also prepared for the 0 μM compound sample. At the 22-hour timepoint, the medium is removed from the cells, and 100 μL of each compound dilution is added. The cells are incubated at 37° C. for 2-3 h.
During the compound pre-incubation period, the growth factors are diluted to the appropriate concentrations. Solutions of DMEM+10% FBS+antibiotics, containing either VEGF or bFGF at the following concentrations: 50, 10, 2, 0.4, 0.08, and 0 ng/mL are prepared. For the compound-treated cells, solutions of VEGF at 550 ng/mL or bFGF at 220 ng/mL for 50 ng/mL or 20 ng/mL final concentrations, respectively, are prepared since 10 μL of each will be added to the cells (110 μL final volume). At the appropriate time after adding the compounds, the growth factors are added. VEGF is added to one set of plates, while bFGF is added to another set of plates. For the growth factor control curves, the media on wells B4-G6 of plates 1 and 2 are replaced with media containing VEGF or bFGF at the varying concentrations (50-0 ng/mL). The cells are incubated at 37° C. for an additional 72 h.
At the completion of the 72 h incubation period, the medium is removed, and the cells are washed twice with PBS. After the second wash with PBS, the plates are tapped gently to remove excess PBS, and the cells are placed at −70° C. for at least 30 min. The cells are thawed and analyzed using the CyQuant fluorescent dye (Molecular Probes C-7026), following the manufacturer's recommendations. The plates are read on a Victor/Wallac 1420 workstation at 485 nm/530 nm (excitation/emission). Raw data are collected and analyzed using a 4-parameter fit equation in XLFit. IC50 values are then determined.

Row | Structure (SMILES) | IC50
1 | CN1CCC(N2CC(C)(C)c3ccc(NC(=O)c4cccnc4Nc4ccc5cn[nH]c5c4)cc32)CC1 [Example 48, N-[3,3-Dimethyl-1-(1-methyl(4-piperidyl))indolin-6-yl][2-(1H-indazol-6-ylamino)(3-pyridyl)]carboxamide] | < 0.05 µM
2 | NS(=O)(=O)c1cc(NC(=O)c2cccnc2Nc2ccc3cn[nH]c3c2)ccc1Cl [Example 13, N-3-aminosulfonyl(4-chloro-phenyl)[2-(1H-indazol-6-ylamino)(3-pyridyl)]carboxamide] | < 0.05 µM
3 | CC(C)(C)c1ccc(NC(=O)c2cccnc2Nc2ccc3cn[nH]c3c2)cc1NC(=O)CN1CCCC1 [Example 587, N-(4-(1,1-Dimethylethyl)-3-((1-pyrrolidinylacetyl)amino)phenyl)-2-(1H-indazol-6-ylamino)-3-pyridinecarboxamide] | < 0.05 µM
4 | CC1(C)COc2cc(NC(=O)c3cccnc3Nc3ccc4cn[nH]c4c3)ccc21 [Example 106, N-(3,3-Dimethyl-2,3-dihydro-benzofuran-6-yl)-2-(1H-indazol-6-ylamino)-nicotinamide] | < 0.05 µM
5 | O=C(Nc1ccc(C(F)(F)C(F)(F)F)c(CN2CCNCC2)c1)c1cccnc1Nc1ccc2cn[nH]c2c1 [Example 111, 2-(1H-Indazol-6-ylamino)-N-(4-pentafluoroethyl-3-piperazin-1-ylmethyl-phenyl)-nicotinamide] | < 0.05 µM
6 | CC1(C)NS(=O)(=O)c2cc(NC(=O)c3cccnc3Nc3ccc4cn[nH]c4c3)ccc21 [Example 76, N-(3,3-Dimethyl-1,1-dioxo-2,3-dihydro-1H-116-benzo[d]isothiazol-6-yl)-2-(1H-indazol-6-ylamino)-nicotinamide] | < 0.05 µM
7 | CCC(C)c1ccc(NC(=O)c2cccnc2Nc2ccc3cn[nH]c3c2)cc1 (stereo not shown) [Example 7, [2-(1H-Indazol-6-ylamino)(3-pyridyl)]-N-[4-(methylpropyl)phenyl]carboxamide] | < 0.05 µM
8 | O=C(Nc1ccc(C(F)(F)C(F)(F)F)c(OC[C@@H](O)CN2CCCC2)c1)c1cccnc1Nc1ccc2cn[nH]c2c1 [Example 82, N-[3-(2-Hydroxy-3-pyrrolidin-1-yl-propoxy)-4-pentafluoroethyl-phenyl]-2-(1H-indazol-6-ylamino)-nicotinamide] | < 0.05 µM
9 | CC(C)(C)c1ccc(NC(=O)c2cccnc2Nc2ccc3cn[nH]c3c2)cc1NC1CCNCC1 [Example 124, N-[4-tert-Butyl-3-(piperidin-4-ylamino)-phenyl]-2-(1H-indazol-6-ylamino)-nicotinamide] | < 0.05 µM
10 | CN1CCN(CCCc2ccc(NC(=O)c3cccnc3Nc3ccc4cn[nH]c4c3)cc2)CC1 [Example 61, [2-(1H-Indazol-6-ylamino)(3-pyridyl)]-N-{4-[3-(4-methylpiperazinyl)propyl]phenyl}carboxamide] | < 0.05 µM
11 | O=C(Nc1ccc(C(F)(F)C(F)(F)F)cc1)c1cccnc1Nc1cccc2c1CNC2=O [Example 602, 2-(1-Oxo-2,3-dihydro-1H-isoindol-4-ylamino)-N-(4-pentafluoroethyl-phenyl)-nicotinamide] | < 0.05 µM
12 | COc1ccc(NC(=O)c2cccnc2Nc2ccc3cn[nH]c3c2)cc1O [Example 36, N-(3-Hydroxy-4-methoxyphenyl)[2-(1H-indazol-6-ylamino)(3-pyridyl)]carboxamide] | < 0.05 µM
13 | O=C(Nc1cc(OC2CCNCC2)cc(C(F)(F)F)c1)c1cccnc1Nc1ccc2cn[nH]c2c1 [Example 74, 2-(1H-Indazol-6-ylamino)-N-[3-(piperidin-4-yloxy)-5-trifluoromethyl-phenyl]-nicotinamide] | < 0.05 µM
14 | CN1CCC(C(C)(C)c2ccc(NC(=O)c3cccnc3Nc3cccc4c3CNC4=O)cc2)CC1 [Example 603, N-{4-[1-Methyl-1-(1-methyl-piperidin-4-yl)-ethyl]-phenyl}-2-(1-oxo-2,3-dihydro-1H-isoindol-4-ylamino)-nicotinamide] | < 0.05 µM
15 | CN(C)CCCc1cc(NC(=O)c2cccnc2Nc2ccc3cn[nH]c3c2)cc(C(F)(F)F)c1 [Example 51, N-{3-[3-(Dimethylamino)propyl]-5-(trifluoromethyl)phenyl}[2-(1H-indazol-6-ylamino)(3-pyridyl)]carboxamide] | < 0.05 µM
16 | CC1(C)CNCc2cc(NC(=O)c3cccnc3Nc3ccc4cn[nH]c4c3)ccc21 [Example 126, N-(4,4-Dimethyl-1,2,3,4-tetrahydro-isoquinolin-7-yl)-2-(1H-indazol-6-ylamino)-nicotinamide] | < 0.05 µM
17 | CN1CCC[C@H]1COc1cc(NC(=O)c2cccnc2Nc2ccc3cn[nH]c3c2)ccc1C(F)(F)F [Example 616, 2-(1H-indazol-6-ylamino)-N-(3-((((2S)-1-methyl-2-pyrrolidinyl)methyl)oxy)-4-(trifluoromethyl)phenyl)-3-pyridinecarboxamide] | < 0.05 µM
18 | O=C(Nc1ccc(C(O)(C(F)(F)F)C(F)(F)F)cc1)c1cccnc1Nc1cccc2c1CNC2=O [Example 608, 2-(1-Oxo-2,3-dihydro-1H-isoindol-4-ylamino)-N-[4-(2,2,2-trifluoro-1-hydroxy-1-trifluoromethyl-ethyl)-phenyl]-nicotinamide] | < 0.05 µM
19 | CC1(C)CCC(C)(C)c2cc(NC(=O)c3cccnc3Nc3ccc4cn[nH]c4c3)ccc21 [Example 77, 2-(1H-Indazol-6-ylamino)-N-(5,5,8,8-tetramethyl-5,6,7,8-tetrahydro-naphthalen-2-yl)-nicotinamide] | < 0.05 µM
20 | CN1CCN(Cc2cc(NC(=O)c3cccnc3Nc3ccc4cn[nH]c4c3)ccc2C(F)(F)C(F)(F)F)CC1 [Example 108, 2-(1H-Indazol-6-ylamino)-N-[3-(4-methyl-piperazin-1-ylmethyl)-4-pentafluoroethyl-phenyl]-nicotinamide] | < 0.05 µM
21 | O=C(Nc1cccc(C(F)(F)F)c1)c1ccc(F)nc1Nc1ccc2cn[nH]c2c1 [Example 68, [6-Fluoro-2-(1H-indazol-6-ylamino)(3-pyridyl)]-N-[3-(trifluoromethyl)phenyl]carboxamide] | < 0.05 µM
22 | O=C(Nc1ccc2c(c1)CN(CCN1CCOCC1)CC2)c1cccnc1Nc1ccc2cn[nH]c2c1 [Example 118, 2-(1H-Indazol-6-ylamino)-N-[2-(2-morpholin-4-yl-ethyl)-1,2,3,4-tetrahydro-isoquinolin-7-yl]-nicotinamide] | < 0.05 µM
23 | CC(C)(C)c1ccc(NC(=O)c2cccnc2Nc2ccc3cn[nH]c3c2)cc1CCCN1CCCC1 [Example 56, N-[4-(tert-Butyl)-3-(3-pyrrolidinylpropyl)phenyl][2-(1H-indazol-6-ylamino)(3-pyridyl)]carboxamide] | < 0.05 µM
24 | CC(C)N1CCC[C@H]1COc1cc(NC(=O)c2cccnc2Nc2ccc3cn[nH]c3c2)cc(C(F)(F)F)c1 [Example 583, 2-(1H-Indazol-6-ylamino)-N-(3-((((2S)-1-(1-methylethyl)-2-pyrrolidinyl)methyl)oxy)-5-(trifluoromethyl)phenyl)-3-pyridinecarboxamide] | < 0.05 µM
25 | CN(C)CC(=O)Nc1cc(NC(=O)c2cccnc2Nc2ccc3cn[nH]c3c2)ccc1C(C)(C)C [Example 613, N-(4-(1,1-Dimethylethyl)-3-((N,N-dimethylglycyl)amino)phenyl)-2-(1H-indazol-6-ylamino)-3-pyridinecarboxamide] | < 0.05 µM
26 | CC1(C)CC(=O)Nc2nc(NC(=O)c3cccnc3Nc3ccc4cn[nH]c4c3)ccc21 [Example 593, N-(5,5-Dimethyl-7-oxo-5,6,7,8-tetrahydro-[1,8]naphthyridin-2-yl)-2-(1H-indazol-6-ylamino)-nicotinamide] | < 0.05 µM
27 | O=C(Nc1ccc2ccn(CCN3CCOCC3)c2c1)c1cccnc1Nc1ccc2cn[nH]c2c1 [Example 62, [2-(1H-Indazol-6-ylamino)(3-pyridyl)]-N-[1-(2-morpholin-4-ylethyl)indol-6-yl]carboxamide] | < 0.05 µM
28 | O=C(Nc1cc(NC(=O)c2cccnc2Nc2ccc3cn[nH]c3c2)cc(C(F)(F)F)c1)O[C@H]1CCOC1 [Example 581, (3S)-Tetrahydro-3-furanyl 3-(((2-(1H-indazol-6-ylamino)-3-pyridinyl)carbonyl)amino)-5-(trifluoromethyl)phenylcarbamate] | < 0.05 µM
